Like-named read-outs stand apart in the source and are kept apart here.
What was measured:
HeLa cells [1] = assay: In vitro assay system for regulation of cell death by the Bcl-2 family (Bax-induced cell death, electroporation, beta-galactosidase reporter); format: cell-based, Human; conditions: for cell viability as compared to controls: expression plasmid transfected alone by electroporation, 18 hours post-transfection
From the text: This assay is based on transient transfection of cultured cells (e.g., HeLa cells, SH-SY5Y neuroblastoma cells. PC12, pheochromocytoma cells, 293 kidney cells, primary neuronal cells etc.), via electroporation or cationic-lipid-mediated transfection, by an expression vector, harboring a reporter gene (e.g. the gene encoding for beta-galactosidase, or the gene encoding for luciferase). Based on the consideration that gene expression requires high level of function and integrity of cellular systems, a direct correlation can be drawn between the activity of the protein encoded by the reporter gene, and the survival rates of the transfected cells. The reporter gene is co-transfected with a second expression vector, carrying either the bcl-2 or bax genes, therefore affecting the cellular apoptotic threshold towards life or death, respectively. In addition, transfection of cells with a combination of both bcl-2 and bax genes is performed, to examine the activity of each of these two proteins in opposing the death-inhibitory or promoting-effect of the other, respectively.
(§1) a. Cell cultures: • 1. HeLa cells: Human cervical carcinoma cells (HeLa) were grown in Dulbecco's modified Eagle's medium (DMEM), supplemented with 10% fetal calf serum (FCS) and 1% penicillin-streptomycin-Nystatin solution (Biological Industries, Israel), and 1% L-Glutamine solution (2 mM, biological Industries, Israel). Cells were grown in monolayer at 37° C. in 5% CO2. • 2. Kidney 293 cells (T): Human embryonic kidney 293 cells were grown in the conditions described for the HeLa cells.
b. Models of Apoptosis: • Three model systems of cell death were used: • 1. Apoptosis induced by dopamine: Exposure of cells to dopamine at 100-500 micromolar for 24 hours induces cell death characteristic of apoptosis (Ziv I, et al., Neurosci Lett 170:136-140, 1994; Offen D, et al., Biochim Biophys Acta 1268:171-177, 1995; Masserano J M, et al., Mol Pharmacol 50:1309-1315, 1996; Shirvan A, et al., J. Neurochem 69:539-549, 1997; Corona V., et al., J. Neurochem 69:1870-1881, 1997; Velez-Pardo C, et al., Pharmacol Toxicol 80:76-84, 1997; Shinkai T, et al., J Neurosci Res. 393-399, 1997; Simantov R, et al., Neuroscience 74:39-50, 1996; Gabby M, et al., Neuropharmacology 35:571-578, 1996). […] Apoptosis induced by Bax. This model utilizes an in vitro assay system for regulation of cell death by the Bcl-2 family of proteins: Cells were grown as described above in example 3a. Cells from log phase of growth were harvested using trypsin/EDTA and resuspended at a density of 5.0×10^6 cells/ml in 400 μl PBS. Cell suspension was then transferred to electroporation chambers containing a marker plasmid (pCDNA/Lac z) encoding beta-galactosidase as a reporter gene (10 μg)+a control plasmid (pCDNA), to bring total plasmid quantity to 23 micrograms+one of the following regimens: • 1. An expression plasmid, encoding Bcl-2 (0.42 μg) • 2. An expression plasmid, encoding Bax (0.42 μg). • 3. Bcl-2-encoding plasmid+Bax-encoding plasmid (0.42 μg each). • 4. Test compound, or an expression plasmid encoding for the test peptide+either Bcl-2-encoding plasmid or Bax-encoding plasmid or both. • 5. Control: only the marker plasmid.
After one minute of incubation, electroporation was performed at 1050 μF and 220 V for a duration of 10-30 ms, using an Equibio gene pulser. Cells from the cuvettes were then pooled into a complete medium with 10% FCS, and 1×10^6 cells were aliquoted into 3.5 cm plates. At 18 hours post-transfection, cell viability was assessed through measurement of beta-galactosidase activity by standard methods (Sambrook, Fritch, Maniatis, Molecular cloning; A laboratory manual, Cold Spring Harbour Laboratory Press, pp 16.66, 1989). OD values were expressed as percent of control, and statistical significance was evaluated by appropriate parametric or non-parametric statistical tests.
Methods: An expression plasmid, encoding the DIP1 (synthesized as described above in Example 2) was used. […]

HeLa cells [2] = assay: Dopamine-induced cell death in HeLa cells (beta-galactosidase reporter viability); format: cell-based, Human; conditions: 18 hours; for cell survival rate: P<0.001
Description: (§2) Models of Apoptosis: • Three model systems of cell death were used: • 1. […] Apoptosis induced by Bax. This model utilizes an in vitro assay system for regulation of cell death by the Bcl-2 family of proteins: Cells were grown as described above in example 3a. Cells from log phase of growth were harvested using trypsin/EDTA and resuspended at a density of 5.0×10^6 cells/ml in 400 μl PBS. Cell suspension was then transferred to electroporation chambers containing a marker plasmid (pCDNA/Lac z) encoding beta-galactosidase as a reporter gene (10 μg)+a control plasmid (pCDNA), to bring total plasmid quantity to 23 micrograms+one of the following regimens: • 1. An expression plasmid, encoding Bcl-2 (0.42 μg) • 2. An expression plasmid, encoding Bax (0.42 μg). • 3. Bcl-2-encoding plasmid+Bax-encoding plasmid (0.42 μg each). • 4. Test compound, or an expression plasmid encoding for the test peptide+either Bcl-2-encoding plasmid or Bax-encoding plasmid or both. • 5. Control: only the marker plasmid.
Cell viability was then evaluated by the measurement of the beta-galactosidase activity, as specified above.
Synthetic DIP1 was introduced into HeLa cells with a beta-galactosidase reporter plasmid by electroporation. […] Cell viability was then evaluated by measurement of the beta-galactosidase activity.

HeLa cells [3] = conditions: 18 hours
Description: as §2
Cell viability was then evaluated by determining beta-galactosidase activity.

[4] = test system: embryonic kidney 293T cells; assay: Cell-killing effect of Bax on embryonic kidney 293T cells (beta-galactosidase reporter); format: cell-based, Human; conditions: expression plasmids encoding Bax and DIP1, Superfect transfection, 18 hours
Description: as §1
Methods: Human embryonic kidney 293T cells were grown as specified in Example 3.a. Cells were co-transfected using the Superfect Transfection Kit (Quiagen), with 5 μg total DNA of the following effectors: pCDNA/Lac-z reporter plasmid and one of the following:
• 1). Expression plasmid encoding DIP1. • 2). Expression plasmid encoding Bax. • 3). Expression plasmids, encoding Bax and DIP1.
After 18 hours, the cells were harvested for beta-galactosidase activity assay.
Human embryonic kidney 293T cells were co-transfected by […] with a reporter plasmid encoding beta-galactosidase, in combination with either an expression plasmid encoding DIP1; an expression plasmid encoding Bax; or expression plasmids encoding Bax and DIP1. Cell viability was evaluated after 18 hours, by measurement of beta-galactosidase activity.

In the case of “Bcl-2: death-inhibitory protein, expressed from a transfected expression plasmid”, the “cell-killing effect of Bax on co-transfection” value (HeLa cells [1]; co-transfection with Bax-encoding plasmid, 18 hours) is reported as “markedly counteracted” and the “cell viability as compared to controls” value (HeLa cells [1]) is reported as “increases cell viability”.

In the case of `NCCc1ccc(O)c(O)c1` [dopamine, reference compound], the cell survival (HeLa cells [2]; dopamine 150 μM alone) is reported as 30.8 ± 6.0% of control and the cell survival (HeLa cells [2]; dopamine 300 μM alone) is reported as 8.4 ± 7.0% of control.

`OO` [hydrogen peroxide, reference compound] was tested, and the cell survival rate (HeLa cells [3]; hydrogen peroxide 100 μM alone, mean±SD) was 20.4±2.8% of control and the cell survival rate (HeLa cells [3]; hydrogen peroxide 200 μM alone, mean±SD) was 5.8±2.1% of control.

In the case of “Bax: death-inducing Bcl-2 family protein, expressed from a transfected expression plasmid”, the cell survival rate (HeLa cells [1]; Bax-encoding plasmid alone, 18 hours) is reported as 37.0 ± 2.2% and the “cell viability as compared to controls” value (HeLa cells [1]) is reported as “marked death-inducing effect”.

“H-FELRYRRAF-OH [DIP1, Phe-Glu-Leu-Arg-Tyr-Arg-Arg-Ala-Phe]” was tested, and the cell survival rate (HeLa cells [2]; synthetic DIP1 by electroporation + dopamine 150 μM) was 75.4+9.0%, the cell survival rate (HeLa cells [2]; synthetic DIP1 by electroporation + dopamine 300 μM) was 40.2+8.0% and the cell survival rate (HeLa cells [1]; co-transfection of DIP1-encoding plasmid with Bax-encoding plasmid, 18 hours, p<0.001) was 71.4 ± 9.4 % of control. For the same compound, the “cell viability as compared to controls” value (HeLa cells [1]) was “markedly enhanced cell viability”, the “counteracting Bax toxicity” value [4] was “markedly active in counteracting Bax toxicity” and the cell survival rate (HeLa cells [3]; synthetic DIP1 by electroporation + hydrogen peroxide 100 μM, p<0.001) was 53.3±8.8%. The cell survival rate (HeLa cells [3]; synthetic DIP1 by electroporation + hydrogen peroxide 200 μM, p<0.001) was 33.4±3.7%.
